Literature values in patent US9250230B2, “Using induced pluripotent stem cells for screening anti-neoplastic agents” (priority 2011, dated 2016).

Columns and labels:
iPS reprogramming = iPS reprogramming of somatic cells
[1] = tested on: chemical reprogramming to CiPSCs; conditions: TTNPB added to small-molecule reprogramming

SMILES: O=CC[C@@H](O)[C@H](O)[C@H](O)CO [2-DG, 2-deoxy-D-glucose]
- effect on reprogramming efficiency (iPS reprogramming): inhibited the reprogramming efficiency

SMILES: O=C(CO)[C@@H](O)[C@H](O)[C@H](O)COP(=O)(O)O [F6P, D-fructose-6-phosphate]
- effect on reprogramming efficiency (iPS reprogramming): increased reprogramming efficiency

SMILES: C/C(=C\c1ccc(C(=O)O)cc1)c1ccc2c(c1)C(C)(C)CCC2(C)C [TTNPB]
- enhancement of reprogramming efficiency of chemical reprogramming [1]: up to 40 fold
